Data from patent US9918968B2, “Rapamycin analogs targeting proteasome function in the treatment of cancer” (THE BOARD OF REGENTS OF THE UNIVERSITY OF TEXAS SYSTEM, priority 2013, dated 2018).

Experiments:
[1] = test system: T1, human 20S proteasome, T-L peptidase; experiment: T-L peptidase activity of purified human 20S proteasome (BocLRR-MCA); format: biochemical
T1 construct: purchased Enzo LifeSciences
Procedure: (§1) Human purified proteasome complexes were purchased from Enzo LifeSciences or Boston Biochemicals (19S complex). BODIPY-casein (Invitrogen/Molecular Probes) was used as a model protein substrate, with increasing fluorescence of BODIPY labeled peptide products of degradation monitored for up to 8 hours at 37° C. The peptidase activity of the enzyme was measured as arbitrary intensity units of the released fluorescent group 7-amino-4-methylcoumarin (AMC) from peptide substrates, as described. The common substrates specific for the three kinds of active sites: succinyl-LeuLeuValTyr-7-amido-4-methylcoumarin (Suc-LLVY-MCA; for the ChT-L activity; Bachem), butoxycarbonyl-LeuArgArg-MCA (BocLRR-MCA; for T-L; Bachem) and carbobenzoxy-LeuLeuGlu-MCA (CbzLLE-MCA; for PGPH; Enzo Life Sciences International, Inc.) were used at 100 μM final concentrations, unless stated otherwise (Gaczynska and Osmulski, 2005). Proteasome substrates, rapamycin, its derivatives, and competing peptides were stocked in DMSO and diluted 100-fold in the reaction mixtures. The Rpt5 and PA200 C-terminal peptides were synthesized in the Departmental Peptide Synthesis Core using the standard SPPS chemistry. To activate the latent 20S proteasome, 0.005% (final concentration) of sodium dodecyl sulfate (SDS) was used. The reactions were carried out in 96 well plates, with 2.3 nM proteasome and other components as indicated dissolved in 50 mM Tris-HCl buffer (pH 8.0) and incubated at 37° C. for up to 1 hour. The fluorescence of products was monitored every 2 minutes with a Fluoroskan Ascent plate reader. Reaction rates were calculated from smoothed linear segment of kinetic curves using OriginPro 8.6 (OriginLabs, Northampton, Mass.). For the determination of an inhibition type, at least six distinct substrate concentrations and two inhibitor concentrations were used. The kinetic parameters of inhibition were analyzed in terms of the Michaelis-Menten formalism using the enzyme kinetic module of SigmaPlot v.12 (Systat Software, Inc, San Jose, Calif.) to perform the respective calculations.
IC50 values (a drug concentration causing 50% inhibition of the indicated enzymatic activity) were calculated for ChT-L and PGPH peptidases. Kd (dissociation constant) and Bmax (maximal activation effect achieved; in % above the control activity) values were calculated for the T-L peptidase. Mean±SD from n=2 or 3 experiments, or data from representative experiments set in duplicates or triplicates, are presented in the table. All three peptidase activities changed by no more than ±20%, without a concentration-dependent trend, upon treatment with up to 10 μM of rapamycin unrelated mTOR inhibitors PI-103 or NVP-BEZ235, in two independent experiments.

20S proteasome α face = test system: T2, 20S proteasome α face; experiment: AFM imaging of open/closed conformers of 20S proteasome α face; set-up: species or system human; conditions: 10 μM compound
T2 construct: purchased Enzo LifeSciences
Procedure: AFM imaging of the 20S proteasomes were performed as previously described, in tapping (oscillating) mode in liquid (Osmulski et al., 2009 and Gaczynska and Osmulski, 2011). In short, 3 μL of proteasome preparations diluted to nanomolar concentration were deposited on a freshly cleaved muscovite mica surface. After 2 min incubation allowing electrostatic attachment of the protein particles to mica the droplet was overlaid with 30 microL of 50 mM Tris-HCl buffer (pH 7.0) and mounted in the wet chamber of a MultiMode NanoScope Ma (Bruker Corp.). Oxide-sharpened silicon nitride tips on cantilevers with a nominal spring constant 0.32 N/m (Bruker Corp.) were used to image 1 μm^2 fields in the height mode, with a scan rate of 3.05 Hz. The excitation frequency was manually tuned to 9-10 kHz, with a drive voltage of 200-500 mV and a relatively high set point (1.6 V to 1.9 V) to assure tapping with low, non-destructive force. […] As the inventors established previously, such resolution was sufficient to detect distinct conformations of the α face, covered by six scan lines. Multiple fields were scanned for each sample to collect images of hundreds of particles. Selected fields were repeatedly scanned to monitor changes in topography of the same particles for prolonged time. Inhibitors and the SucLLVY-MCA substrate were diluted in 10 μL of the imaging buffer and directly injected into the chamber. Raw images are presented, with a standard plain-fit and flattening (NanoScope software v.5.12) used as the only processing tools. For display purposes the brightness and contrast of the images was adjusted with the Nanoscope software or with Adobe Photoshop (Adobe Systems Inc.), and outlier scan lines were occasionally manually removed (Nanoscope software). Top view (“standing”, rounded) proteasomes were distinguished from the minor population of side-view (“lying”, rectangular) particles as described, by comparison of their length—to width ratios (Osmulski et al., 2009). The dimensions of particles were approximated and a shape of the α face in top-view proteasomes was judged with the help of a section tool in the Nanoscope v.5.12 or SPIP v.6.02 software (Image Metrology).
For this purpose, the inventors used the noninvasive tapping mode atomic force microscopy (AFM) in liquid, the imaging technique suitable for analysis of surface topography of macromolecules in their native state with a nanometer-scale practical resolution. The inventors established before that AFM imaging is a useful tool for studying structural dynamics of the 20S α face (Osmulski et al., 2009, Gaczynska et al., 2003; Gaczynska et al., 2011). They acquired and analyzed images of hundreds of single native, fully active 20S molecules. The majority of particles were in top-view (“standing”) position conveniently allowing for imaging of their α faces. […] Following previous extensive studies, the inventors refer to the two forms as “closed-gate” and “open-gate” proteasomes, respectively (Osmulski et al., 2009). As described before, the inventors used the shape of sections carried out in four directions through the top portion of the surface topography of the α ring to distinguish between the two forms. In short, the particle was classified as closed if all four sections were cone-shaped. In contrast, the particle was classified as open if all sections presented a dip surrounded by a rim (FIG. 5A) (Osmulski, et al., 2009). The same particles imaged in consecutive scans were able to assume either closed or open conformations, however the cone-shaped particles were always more abundant than crater-shaped, and accounted for about three-quarters of the imaged molecules (FIG. 5B). Addition of rapamycin to the imaged particles remarkably changed the partition of forms. […]

[2] = test system: T3, 20S core with 19S, 11S, tRpt5 or tPA200; experiment: Activation of 20S core ChT-L activity by α face ligands (19S, 11S, tRpt5, tPA200); format: biochemical, human; conditions: 10 μM derivative
T3 construct: purchased Enzo LifeSciences (20S, 11S); Boston Biochemicals (19S complex)
Procedure: as §1
De novo assembly of 19S from subunits is a complex process assisted by chaperones. In vitro, and likely also in cells, the 26S can also be reconstructed from 20S and the already-assembled 19S particle in the presence of ATP (Smith et al., 2005). Enhancement of the peptidase activities of the core proteasome is an established test for efficiency of the in vitro reconstruction. […] In contrast, a pretreatment of 20S with 5 μM rapamycin before adding ATP and 19S totally abrogated the activation, leaving the proteasome almost 40% inhibited instead (FIG. 6).

mTOR = mTOR (Homo sapiens, UniProt P42345+P62942); conditions: cited from earlier work

CO[C@@H](C[C@@H]1CC[C@@H](C)[C@](O)(C(=O)C(=O)N2CCCC[C@H]2C(=O)[O-])O1)/C(C)=C/C=C/C=C/[C@@H](C)C[C@@H](C)C(=O)[C@H](OC)[C@H](O)/C(C)=C/[C@@H](C)C(=O)/C=C/[C@H](C)C[C@@H]1CC[C@@H](O)[C@H](OC)C1.[Na+] [seco-rapamycin]
activation of post-basic (T-L) cleavages ([1]; 5 μM): ~2 fold
Kd ([1]; activation of T-L peptidase): 5.33 µM
Bmax [%]: T-L ([1]; maximal activation effect, % above the control activity): 77%
closed conformers (20S proteasome α face): ~40%
open conformers (20S proteasome α face): about 60%
lowering of activation by tRpt5 ([2]; 10 μM tRpt5): about 30%
inhibition of proteasome with or without tPA200 ([2]; presence or absence of 10 μM tPA200): about 40%
effect on mTOR function (mTOR): not to affect the mTOR function
